{
  "source": "patent US20190209697A1",
  "about": "“CELLS LABELLED WITH LIPID CONJUGATES AND METHODS OF USE THEREOF” (priority 2015, published 2019)",
  "test_system": "Jurkat cells",
  "assay": "Efficiency of incorporation of AF488-capped glycopolymers into cell membranes, flow cytometry",
  "format": "cell-based",
  "details": "10 μM AF488-capped polymer, 1 h at RT",
  "description": "Using AF488 labeled polymers, the efficiency with which each glycopolymer was incorporated into cell membranes was measures. Jurkat cells (10^7/mL in serum-free media) were incubated for 1 h at room temperature with 10 μM lipid-conjugated glycopolymer, washed, and then measured for fluorescence by flow cytometry (FIG. 4, panel A).\nJurkat cells were incubated with 10 μM of AF488-capped polymer for 1 h at RT, washed and their fluorescence measured by flow cytometry. […] For FIG. 4-FIG. 5, shown are mean minus background+/−standard deviation of three replicate experiments.\nJurkat cells (10^7/mL) were incubated with AF488-polymers at the given concentration or PBS in serum free media for 1 hr at RT. The cells were then washed, and their fluorescence measured by flow cytometry. Shown are mean and standard deviation of three replicate experiments minus background as measured by cells incubated with PBS instead of polymer.",
  "data": [
    {"substance": "DMPC", "values": [
      {"measurement": "level of incorporation into cell membranes", "value": "highest levels of incorporation"}
    ]}
  ]
}
